Results: ChEMBL document CHEMBL5665443, “Enzyme Inhibitor Single Concentration assay results for EUbOPEN Chemogenomics Library” (2024)
Where a SMILES comes first, the peptide text is derived from it. [ ]: non-standard residue; d: D form. Arg(Me) = CNC(=N)NCCC[C@H](N)C(=O)O; d3Pal = N[C@H](Cc1cccnc1)C(=O)O; azaGly = NNC(=O)O

Key:
[1] = biological target: Uracil-DNA glycosylase (Homo sapiens) (UniProt P13051); details: Hit No;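 further: UNG excision on a quenched double-stranded DNA oligo probe, with APE1 added for strand incision and turnover, read as fluorescence at 594 nm as strands separate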
Description: Inhibition of UNG by quantifying inhibition of UNG-mediated cleavage and dissociation of quenched duplex DNA oligonucleotides, measured as fluorescence at 594 nm. To generate a functional strand incision and increase turn-over this assay is coupled to APE1.

[2] = biological target: T1, Endonuclease 8-like 2 (Homo sapiens) (UniProt Q969S2); details: Hit No;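 further: fluorescence at 594 nm reports NEIL2 cutting and release of a quenched double-stranded DNA oligo substrate, reduced signal read as inhibition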
T1 sequence (whole entry): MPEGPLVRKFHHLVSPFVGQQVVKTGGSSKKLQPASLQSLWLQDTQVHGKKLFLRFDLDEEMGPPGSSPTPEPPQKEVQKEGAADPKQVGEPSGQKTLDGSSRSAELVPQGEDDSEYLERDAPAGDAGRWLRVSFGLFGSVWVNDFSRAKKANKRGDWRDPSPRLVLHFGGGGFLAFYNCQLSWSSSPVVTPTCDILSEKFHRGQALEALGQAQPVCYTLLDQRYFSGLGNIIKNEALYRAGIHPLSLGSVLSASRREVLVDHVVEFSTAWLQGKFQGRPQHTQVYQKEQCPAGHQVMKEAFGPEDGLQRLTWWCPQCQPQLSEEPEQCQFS
Description: Inhibition of NEIL2 by quantifying inhibition of NEIL2-mediated cleavage and dissociation of quenched duplex DNA oligonucleotides, measured as fluorescence at 594 nm.

[3] = biological target: Endonuclease 8-like 1 (Homo sapiens) (UniProt Q96FI4); details: Hit No;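 further: fluorescence at 594 nm from quenched duplex DNA oligonucleotides released by NEIL1 cleavage and strand separation, reported as reduction of this enzyme activity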
Description: Inhibition of NEIL1 by quantifying inhibition of NEIL1-mediated cleavage and dissociation of quenched duplex DNA oligonucleotides, measured as fluorescence at 594 nm.

[4] = biological target: G/T mismatch-specific thymine DNA glycosylase (Homo sapiens) (UniProt Q13569); details: Hit No;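 further: human TDG cleavage of quenched duplex DNA oligonucleotides coupled to APE1, strand release read as fluorescence at 594 nm, inhibition of TDG activity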
Description: Inhibition of TDG by quantifying inhibition of TDG-mediated cleavage and dissociation of quenched duplex DNA oligonucleotides, measured as fluorescence at 594 nm. To generate a functional strand incision and increase turn-over this assay is coupled to APE1.

[5] = biological target: Methyl-CpG-binding domain protein 4 (Homo sapiens) (UniProt O95243); details: Hit No;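 further: MBD4 activity read as fluorescence at 594 nm from cleavage and release of a quenched duplex DNA oligonucleotide, with APE1 coupled to incise the strand and raise turnover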
Description: Inhibition of MBD4 by quantifying inhibition of MBD4-mediated cleavage and dissociation of quenched duplex DNA oligonucleotides, measured as fluorescence at 594 nm. To generate a functional strand incision and increase turn-over this assay is coupled to APE1.

[6] = biological target: T2, Adenine DNA glycosylase (Homo sapiens) (UniProt Q9UIF7); details: Hit No;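 further: human MUTYH activity read as 594 nm fluorescence from cleavage and release of a quenched DNA duplex, coupled with APE1 for strand incision, lower signal meaning inhibition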
T2 sequence (whole entry): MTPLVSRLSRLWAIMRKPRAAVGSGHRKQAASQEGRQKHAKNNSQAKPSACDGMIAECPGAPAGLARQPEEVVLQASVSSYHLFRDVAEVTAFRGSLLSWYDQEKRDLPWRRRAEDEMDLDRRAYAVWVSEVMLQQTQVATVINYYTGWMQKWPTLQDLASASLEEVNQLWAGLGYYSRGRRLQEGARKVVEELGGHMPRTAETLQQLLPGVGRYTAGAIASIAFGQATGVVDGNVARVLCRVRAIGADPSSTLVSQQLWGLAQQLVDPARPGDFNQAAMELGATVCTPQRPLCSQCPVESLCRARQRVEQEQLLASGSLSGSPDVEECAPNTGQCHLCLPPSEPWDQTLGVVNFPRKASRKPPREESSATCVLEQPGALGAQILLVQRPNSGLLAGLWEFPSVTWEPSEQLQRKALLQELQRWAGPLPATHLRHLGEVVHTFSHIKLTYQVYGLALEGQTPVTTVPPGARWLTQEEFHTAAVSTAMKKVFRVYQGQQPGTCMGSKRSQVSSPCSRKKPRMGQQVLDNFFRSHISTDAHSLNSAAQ
Description: Inhibition of MUTYH by quantifying inhibition of MUTYH-mediated cleavage and dissociation of quenched duplex DNA oligonucleotides, measured as fluorescence at 594 nm. To generate a functional strand incision and increase turn-over this assay is coupled to APE1.

[7] = biological target: T3, Endonuclease III-like protein 1 (Homo sapiens) (UniProt P78549); details: Hit No;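 further: enzyme assay tracking NTHL1 cutting and release of a quenched double-stranded DNA oligo substrate, read as fluorescence at 594 nm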
T3 sequence (whole entry): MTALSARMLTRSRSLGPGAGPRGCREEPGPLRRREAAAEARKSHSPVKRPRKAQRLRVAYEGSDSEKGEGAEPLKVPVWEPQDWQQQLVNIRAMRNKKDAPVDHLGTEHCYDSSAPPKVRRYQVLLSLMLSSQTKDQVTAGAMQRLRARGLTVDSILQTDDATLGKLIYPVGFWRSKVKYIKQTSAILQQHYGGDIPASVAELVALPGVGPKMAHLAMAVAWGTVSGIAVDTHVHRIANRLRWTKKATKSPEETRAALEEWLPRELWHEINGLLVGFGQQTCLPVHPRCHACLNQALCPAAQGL
Description: Inhibition of NTHL1 by quantifying inhibition of NTHL1-mediated cleavage and dissociation of quenched duplex DNA oligonucleotides, measured as fluorescence at 594 nm.

[8] = biological target: N-glycosylase/DNA lyase (Homo sapiens) (UniProt O15527);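 further: OGG1 cleavage of a quenched duplex DNA oligonucleotide, coupled to APE1 for strand incision, read as fluorescence at 594 nm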
Description: Inhibition of OGG1 by quantifying inhibition of OGG1-mediated cleavage and dissociation of quenched duplex DNA oligonucleotides, measured as fluorescence at 594 nm. To generate a functional strand incision and increase turn-over this assay is coupled to APE1.

[9] = biological target: T4, Single-strand selective monofunctional uracil DNA glycosylase (Homo sapiens) (UniProt Q53HV7); details: Hit No;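 further: enzymatic SMUG1 assay coupled with APE1, reading fluorescence at 594 nm released when a quenched double-stranded DNA oligonucleotide substrate is cleaved and separated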
T4 sequence (whole entry): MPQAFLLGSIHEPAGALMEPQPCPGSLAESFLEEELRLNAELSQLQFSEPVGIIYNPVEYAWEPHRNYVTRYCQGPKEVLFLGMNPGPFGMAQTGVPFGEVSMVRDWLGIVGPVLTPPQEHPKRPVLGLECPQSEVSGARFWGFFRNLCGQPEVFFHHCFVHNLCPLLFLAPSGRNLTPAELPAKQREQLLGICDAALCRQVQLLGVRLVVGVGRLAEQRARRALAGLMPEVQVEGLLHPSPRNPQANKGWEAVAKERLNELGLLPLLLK
Description: Inhibition of SMUG1 by quantifying inhibition of SMUG1-mediated cleavage and dissociation of quenched duplex DNA oligonucleotides, measured as fluorescence at 594 nm. To generate a functional strand incision and increase turn-over this assay is coupled to APE1.

[10] = Compound Concentration 10.0 uM, Hit No
[11] = Compound Concentration 1.0 uM, Hit No

Chain of Uracil-DNA glycosylase (Homo sapiens) (P13051 whole entry): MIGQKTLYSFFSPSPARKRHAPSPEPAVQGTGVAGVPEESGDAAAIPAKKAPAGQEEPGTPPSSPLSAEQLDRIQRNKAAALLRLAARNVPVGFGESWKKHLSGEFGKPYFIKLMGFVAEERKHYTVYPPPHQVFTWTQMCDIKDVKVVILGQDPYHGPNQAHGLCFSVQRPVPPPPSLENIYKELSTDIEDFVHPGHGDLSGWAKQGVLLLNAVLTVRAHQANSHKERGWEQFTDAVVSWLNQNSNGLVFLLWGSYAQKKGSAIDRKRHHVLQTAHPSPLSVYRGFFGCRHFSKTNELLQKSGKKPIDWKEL
Chain of Endonuclease 8-like 1 (Homo sapiens) (Q96FI4 whole entry): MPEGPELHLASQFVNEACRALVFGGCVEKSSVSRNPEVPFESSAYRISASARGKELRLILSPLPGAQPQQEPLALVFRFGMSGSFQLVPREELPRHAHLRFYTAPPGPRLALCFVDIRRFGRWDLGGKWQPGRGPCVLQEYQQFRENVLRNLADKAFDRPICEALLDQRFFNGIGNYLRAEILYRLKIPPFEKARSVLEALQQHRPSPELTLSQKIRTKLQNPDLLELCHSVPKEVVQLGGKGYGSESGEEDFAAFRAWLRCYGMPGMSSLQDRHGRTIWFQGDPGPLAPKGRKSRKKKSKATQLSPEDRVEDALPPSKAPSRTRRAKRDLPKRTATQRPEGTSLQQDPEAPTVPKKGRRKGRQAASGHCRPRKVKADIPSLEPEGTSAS
Chain of Methyl-CpG-binding domain protein 4 (Homo sapiens) (O95243 whole entry, the tested form may be a part): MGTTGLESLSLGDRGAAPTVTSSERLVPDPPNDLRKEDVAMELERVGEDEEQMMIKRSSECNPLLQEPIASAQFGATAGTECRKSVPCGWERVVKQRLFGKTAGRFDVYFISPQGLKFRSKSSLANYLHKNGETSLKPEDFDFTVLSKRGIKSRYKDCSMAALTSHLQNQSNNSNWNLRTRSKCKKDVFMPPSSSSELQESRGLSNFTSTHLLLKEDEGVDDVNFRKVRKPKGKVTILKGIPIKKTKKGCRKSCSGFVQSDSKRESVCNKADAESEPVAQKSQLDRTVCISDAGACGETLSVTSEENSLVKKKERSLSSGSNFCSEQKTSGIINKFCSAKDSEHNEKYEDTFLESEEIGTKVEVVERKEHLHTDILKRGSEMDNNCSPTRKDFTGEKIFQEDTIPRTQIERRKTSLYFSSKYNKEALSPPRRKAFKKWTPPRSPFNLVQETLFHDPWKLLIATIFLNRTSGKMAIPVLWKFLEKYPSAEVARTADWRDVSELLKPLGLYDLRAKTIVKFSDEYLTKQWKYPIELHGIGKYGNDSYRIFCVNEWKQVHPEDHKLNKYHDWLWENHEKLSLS
Chain of G/T mismatch-specific thymine DNA glycosylase (Homo sapiens) (Q13569 whole entry, the tested form may be a part): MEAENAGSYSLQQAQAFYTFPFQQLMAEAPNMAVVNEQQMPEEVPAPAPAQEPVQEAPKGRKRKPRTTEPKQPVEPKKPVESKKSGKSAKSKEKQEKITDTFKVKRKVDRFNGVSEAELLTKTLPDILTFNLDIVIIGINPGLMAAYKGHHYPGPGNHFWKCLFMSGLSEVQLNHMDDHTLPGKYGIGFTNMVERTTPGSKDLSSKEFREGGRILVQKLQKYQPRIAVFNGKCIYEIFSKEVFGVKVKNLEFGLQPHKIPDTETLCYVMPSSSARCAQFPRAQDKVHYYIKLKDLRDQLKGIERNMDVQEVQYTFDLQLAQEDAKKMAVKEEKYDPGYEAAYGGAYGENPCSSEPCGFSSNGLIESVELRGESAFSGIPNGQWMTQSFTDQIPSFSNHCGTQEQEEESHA
Chain of N-glycosylase/DNA lyase (Homo sapiens) (O15527 whole entry): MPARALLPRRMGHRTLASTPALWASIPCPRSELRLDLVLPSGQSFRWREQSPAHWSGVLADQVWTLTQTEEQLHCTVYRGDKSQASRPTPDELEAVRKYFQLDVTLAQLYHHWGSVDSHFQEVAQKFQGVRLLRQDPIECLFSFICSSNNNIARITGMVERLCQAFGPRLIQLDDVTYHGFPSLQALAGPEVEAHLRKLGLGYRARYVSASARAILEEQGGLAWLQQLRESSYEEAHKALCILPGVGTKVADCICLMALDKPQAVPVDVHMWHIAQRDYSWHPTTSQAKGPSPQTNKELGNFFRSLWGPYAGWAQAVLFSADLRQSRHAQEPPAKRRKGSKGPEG

Q: `CCCCN1CCC(COC(=O)c2cc(Cl)c(N)c3c2OCCO3)CC1` was tested. Which inhibition ([1]; Compound Concentration 10.0 uM) did it give?
A: -2.45%

Q: What about the inhibition ([2]; Compound Concentration 10.0 uM) of the same molecule?
A: 2.51%

Q: And the inhibition ([3]; Compound Concentration 10.0 uM)?
A: 5.28%

Q: What about the inhibition ([4]; Compound Concentration 10.0 uM) of the same molecule?
A: 14.3%

Q: What about the inhibition ([5]; Compound Concentration 10.0 uM) of the same molecule?
A: 4.39%

Q: And the inhibition ([6]; Compound Concentration 10.0 uM)?
A: -7.02%

Q: What about the inhibition ([7]; Compound Concentration 10.0 uM) of the same molecule?
A: -3.21%

Q: What about the inhibition [8, 10] of the same molecule?
A: -1.24%

Q: What about the inhibition ([9]; Compound Concentration 10.0 uM) of the same molecule?
A: 8.49%

Q: What does the source list for `CC(C)c1ccc(CC(=O)N2CCC[C@@H](c3cccc(OC(C)(C)C(=O)O)c3)C2)cc1`?
A: inhibition ([1]; Compound Concentration 10.0 uM): 3.87%; inhibition ([2]; Compound Concentration 10.0 uM): 4.61%; inhibition ([3]; Compound Concentration 10.0 uM): -5.29%; inhibition ([4]; Compound Concentration 10.0 uM): 47.9%; inhibition ([5]; Compound Concentration 10.0 uM): 54.2%; inhibition ([6]; Compound Concentration 10.0 uM): -0.105%; inhibition ([7]; Compound Concentration 10.0 uM): 8.57%; inhibition [8, 10]: -4.05%; inhibition ([9]; Compound Concentration 10.0 uM): 12.4%

Q: For `N#Cc1cnc(Nc2cc(NC[C@H]3CNCCO3)c(C(F)(F)F)cn2)cn1`, which inhibition ([1]; Compound Concentration 1.0 uM) is on record?
A: 6.29%

Q: What about the inhibition ([2]; Compound Concentration 1.0 uM) of the same molecule?
A: -5.15%

Q: What about the inhibition ([3]; Compound Concentration 1.0 uM) of the same molecule?
A: -5.15%

Q: And the inhibition ([4]; Compound Concentration 1.0 uM)?
A: 53.2%

Q: And the inhibition ([5]; Compound Concentration 1.0 uM)?
A: 13.8%

Q: What about the inhibition ([6]; Compound Concentration 1.0 uM) of the same molecule?
A: 2.62%

Q: And the inhibition ([7]; Compound Concentration 1.0 uM)?
A: -0.61%

Q: What about the inhibition [8, 11] of the same molecule?
A: 7.47%

Q: What about the inhibition ([9]; Compound Concentration 1.0 uM) of the same molecule?
A: 34.2%

Q: `CNC(=O)c1ccc(Nc2ncc(C(F)(F)F)c(NCc3nccnc3N(C)S(C)(=O)=O)n2)cc1` was tested. Which inhibition ([1]; Compound Concentration 1.0 uM) did it give?
A: -2.6%

Q: And the inhibition ([1]; Compound Concentration 10.0 uM)?
A: 3.52%

Q: What about the inhibition ([2]; Compound Concentration 1.0 uM) of the same molecule?
A: -4.88%

Q: And the inhibition ([2]; Compound Concentration 10.0 uM)?
A: -7.12%

Q: What about the inhibition ([3]; Compound Concentration 1.0 uM) of the same molecule?
A: 3.44%

Q: What about the inhibition ([3]; Compound Concentration 10.0 uM) of the same molecule?
A: 2.28%

Q: What about the inhibition ([4]; Compound Concentration 1.0 uM) of the same molecule?
A: 43.6%

Q: What about the inhibition ([4]; Compound Concentration 10.0 uM) of the same molecule?
A: 100%

Q: And the inhibition ([5]; Compound Concentration 1.0 uM)?
A: 13.6%

Q: What about the inhibition ([5]; Compound Concentration 10.0 uM) of the same molecule?
A: 16.6%

Q: And the inhibition ([6]; Compound Concentration 10.0 uM)?
A: 9.35%

Q: What about the inhibition ([7]; Compound Concentration 10.0 uM) of the same molecule?
A: -7.86%

Q: And the inhibition [8, 11]?
A: -7.84%

Q: And the inhibition [8, 10]?
A: 4.66%

Q: What about the inhibition ([9]; Compound Concentration 1.0 uM) of the same molecule?
A: 10.4%

Q: And the inhibition ([9]; Compound Concentration 10.0 uM)?
A: 23.4%

Q: Which results are given for `CN(C)CC#Cc1ccc2[nH]c3c(c2c1)-c1nc(N)ncc1CCC3`?
A: inhibition ([1]; Compound Concentration 1.0 uM): 3.22%; inhibition ([2]; Compound Concentration 1.0 uM): 4.81%; inhibition ([3]; Compound Concentration 1.0 uM): 2.65%; inhibition ([4]; Compound Concentration 1.0 uM): 46.8%; inhibition ([5]; Compound Concentration 1.0 uM): 3.44%; inhibition ([6]; Compound Concentration 1.0 uM): 1.71%; inhibition ([7]; Compound Concentration 1.0 uM): 10.6%; inhibition [8, 11]: 3.18%; inhibition ([9]; Compound Concentration 1.0 uM): 11.2%

Q: Which inhibition ([1]; Compound Concentration 10.0 uM) does the source give for `Cc1cc(OCCC(C)(C)O)cc(C)c1-c1ccc(F)c2c1CC[C@H]2Oc1ccc2c(c1)OC[C@H]2CC(=O)O` here?
A: 1.96%

Q: What about the inhibition ([2]; Compound Concentration 10.0 uM) of the same molecule?
A: -1.76%

Q: And the inhibition ([3]; Compound Concentration 10.0 uM)?
A: -2.26%

Q: And the inhibition ([4]; Compound Concentration 10.0 uM)?
A: 61.7%

Q: And the inhibition ([5]; Compound Concentration 10.0 uM)?
A: 64.2%

Q: What about the inhibition ([6]; Compound Concentration 10.0 uM) of the same molecule?
A: 10%

Q: And the inhibition ([7]; Compound Concentration 10.0 uM)?
A: -4.57%

Q: And the inhibition [8, 10]?
A: 78.7%

Q: And the inhibition ([9]; Compound Concentration 10.0 uM)?
A: 18.5%

Q: How did the inhibition ([1]; Compound Concentration 10.0 uM) turn out when `Cc1cccc(-c2cnc3occ(-c4ccc(C(=O)O)c(C5CCCC5)c4)c3c2)c1` was run?
A: -0.203%

Q: What about the inhibition ([2]; Compound Concentration 10.0 uM) of the same molecule?
A: -2.46%

Q: What about the inhibition ([3]; Compound Concentration 10.0 uM) of the same molecule?
A: 6.08%

Q: What about the inhibition ([4]; Compound Concentration 10.0 uM) of the same molecule?
A: 36.3%

Q: And the inhibition ([5]; Compound Concentration 10.0 uM)?
A: 33%

Q: What about the inhibition ([6]; Compound Concentration 10.0 uM) of the same molecule?
A: 15.7%

Q: And the inhibition ([7]; Compound Concentration 10.0 uM)?
A: 4.27%

Q: And the inhibition [8, 10]?
A: 66.5%

Q: What about the inhibition ([9]; Compound Concentration 10.0 uM) of the same molecule?
A: 18.9%

Q: For `O=C(O)Cc1cccc(OCCCN(Cc2cccc(C(F)(F)F)c2Cl)CC(c2ccccc2)c2ccccc2)c1`, which inhibition ([1]; Compound Concentration 10.0 uM) is on record?
A: 8.18%

Q: What about the inhibition ([2]; Compound Concentration 10.0 uM) of the same molecule?
A: 5.89%

Q: What about the inhibition ([3]; Compound Concentration 10.0 uM) of the same molecule?
A: -4.83%

Q: What about the inhibition ([4]; Compound Concentration 10.0 uM) of the same molecule?
A: 54%

Q: What about the inhibition ([5]; Compound Concentration 10.0 uM) of the same molecule?
A: 61.5%

Q: And the inhibition ([6]; Compound Concentration 10.0 uM)?
A: 2.57%

Q: And the inhibition ([7]; Compound Concentration 10.0 uM)?
A: 2%

Q: What about the inhibition ([8]; Compound Concentration 10.0 uM, Hit Yes) of the same molecule?
A: 106%

Q: And the inhibition ([9]; Compound Concentration 10.0 uM)?
A: 33.2%

Q: How did the inhibition ([1]; Compound Concentration 10.0 uM) turn out when `CNC(=N)NCCC[C@H](NC(=O)[C@H](CC(C)C)NC(=O)NNC(=O)[C@H](Cc1ccccc1)NC(=O)[C@H](CO)NC(=O)[C@H](CC(N)=O)NC(=O)[C@@H](Cc1cccnc1)NC(=O)[C@H](N)Cc1ccc(O)cc1)C(=O)NCC(N)=O` (H-[dY][d3Pal]NSF[azaGly]L[Arg(Me)]G-NH2) was run?
A: 7.1%

Q: What about the inhibition ([2]; Compound Concentration 10.0 uM) of the same molecule?
A: -2.53%

Q: What about the inhibition ([3]; Compound Concentration 10.0 uM) of the same molecule?
A: -0.139%

Q: What about the inhibition ([4]; Compound Concentration 10.0 uM) of the same molecule?
A: 62.4%

Q: What about the inhibition ([5]; Compound Concentration 10.0 uM) of the same molecule?
A: 60.6%

Q: And the inhibition ([6]; Compound Concentration 10.0 uM)?
A: -0.706%

Q: What about the inhibition ([7]; Compound Concentration 10.0 uM) of the same molecule?
A: 0.685%

Q: And the inhibition [8, 10]?
A: 9.57%

Q: What about the inhibition ([9]; Compound Concentration 10.0 uM) of the same molecule?
A: 25.5%

Q: `CC(=O)Nc1ncc(CN2CCC[C@H](Cc3cc(C)nc(C)c3)C2)s1` was tested. Which inhibition ([1]; Compound Concentration 10.0 uM) did it give?
A: 6.88%

Q: What about the inhibition ([2]; Compound Concentration 10.0 uM) of the same molecule?
A: -5.08%

Q: And the inhibition ([3]; Compound Concentration 10.0 uM)?
A: 1.53%

Q: What about the inhibition ([4]; Compound Concentration 10.0 uM) of the same molecule?
A: 48.4%

Q: What about the inhibition ([5]; Compound Concentration 10.0 uM) of the same molecule?
A: 96.5%

Q: And the inhibition ([6]; Compound Concentration 10.0 uM)?
A: 9.89%

Q: What about the inhibition ([7]; Compound Concentration 10.0 uM) of the same molecule?
A: -3.26%

Q: And the inhibition [8, 10]?
A: 2.54%

Q: What about the inhibition ([9]; Compound Concentration 10.0 uM) of the same molecule?
A: 18.4%
